Laboratory results published in patent US20080031931A1, “ORGANOTELLURIUM AND SELENIUM-BASED ANTIMICROBIAL FORMULATIONS AND ARTICLES” (Andover Healthcare, Inc., priority 2006, published 2008).
Structures can show the parent of a compound that is named as a salt.

System: Methicillin-Resistant Staphylococcus aureus (MRSa) ATCC 33592
Assay: Time-kill (rate-of-kill) suspension assay against MRSa
Format: cell-based
Description: Analyzing the efficacy of antimicrobial agents may be performed by various suspension and susceptibility methods. This study is designed to examine the rate-of-kill of a test substance against sponsor selected pure cultures of microorganisms. This is accomplished by exposing the target microorganism(s) to the test substance and inspecting the solution for potential survivors at various time periods. The experimental design in this protocol meets these requirements.
A suspension of bacterial cells is exposed to the test substance for specified contact times. After exposure, an aliquot of the suspension is transferred to a neutralizer and assayed for survivors. Appropriate purity, sterility, microorganism population and neutralization controls are performed.
Using a stock culture of the test organism, a culture of the test organism was struck onto the culture medium listed above. The bacterial cultures were incubated for 24-48 hours at 35-37° C. (alternate incubation may be utilized for certain strains). To produce a suspension containing approximately 1×10^8-1×10^9 CFU/mL, the culture suspension was adjusted with Butterfield's Buffer to yield a suspension matching a 0.5 McFarland turbidity standard.
The test substance to be tested was prepared by transferring a 5.95 mL aliquot of the prepared test substance to a sterile vessel for testing procedures. The test substances were assayed for microbial killing activity within 3 hours of preparation.
A […] aliquot of the standardized inoculum was added to the test substance representing the start of the test exposure (time=0 hr). The inoculated test substance was immediately mixed thoroughly using a laboratory vortex mixer or other applicable method. The inoculated and mixed test substance was held at the specified temperature.
A 1.0 mL aliquot of the inoculated test substance was transferred to 9 mL of neutralizer broth (10× dilution) at each of the times indicated. Four additional 1:10 dilutions in Butterfield's Buffer were also prepared. Using a standard microbiological spread plate count procedure, 1.0 mL aliquots of each dilution (10^−1-10^−4) were plated in duplicate to the appropriate recovery media.
A 5.0 mL aliquot of the neutralized sample (10× dilution) was transferred to a sterile 0.2-0.45 μm filter apparatus system pre-wetted with 10 mL sterile diluent. The sample was filter concentrated and the filter was rinsed using ≧50 mL sterile diluent. The filter was then aseptically removed and placed on the surface of the recovery agar medium to determine the percent MRSa survival.
The bacterial subculture plates were incubated for 48±4 hours at 35-37° C. Subculture plates may be refrigerated at 2-8° C. for ≦3 days prior to examination without affecting the results. Following incubation, the subculture tubes and plates were visually examined for growth. The agar plates were enumerated and recorded. Log and percent reductions will be determined for each time point.
As a control for the viability of the test organism, an equivalent volume of untreated inoculum (0.1 mL) is added to 9.9 mL Butterfield's Buffer (same volume as the test substance). This suspension was neutralized as in the test procedure. The suspension was serially diluted and appropriate dilutions plated using standard microbiological techniques. […] The acceptance criteria for this study control is growth and the value is used for calculation purposes.
Test Data CFU/mL: (avg. # colonies found/plate @ dilution used) (dilution factor) (volume of neutralized solution)/(volume plated) Percent Reduction: [1−(test survivors/test population control)]×100 Log10 Reduction: Log10 (test population control)—Log10 (test survivors) Further details of the microbial time-killing studies can be found in: • 1. American Society for Testing and Materials (ASTM). E2315-03, Guide for Assessment of Microbiocidal Activity Using a Time-Kill Procedure, Volume 11.05, Copyright 2005 ASTM International; and • 2. Food and Drug Administration. […]

[1] = 2 hour exposure, room temperature (20° C.), Agent 4 dissolved in DMSO, tested at 1, 10, and 100 mM
[2] = 4 hour exposure, room temperature (20° C.), Agent 4 dissolved in DMSO, tested at 1, 10, and 100 mM
[3] = 6 hour exposure, room temperature (20° C.), Agent 4 dissolved in DMSO, tested at 1, 10, and 100 mM
[4] = 2 hour exposure, room temperature (20° C.), Agent 1 at 82 mM, Agent 2 at 41 mM, Agent 3 at 47 mM, dihydrochloride
[5] = 4 hour exposure, room temperature (20° C.), Agent 1 at 82 mM, Agent 2 at 41 mM, Agent 3 at 47 mM, dihydrochloride
[6] = 6 hour exposure, room temperature (20° C.), Agent 1 at 82 mM, Agent 2 at 41 mM, Agent 3 at 47 mM, dihydrochloride
[7] = 2 hour exposure, room temperature (20° C.), Agent 1 at 82 mM, Agent 2 at 41 mM, Agent 3 at 47 mM, 1.13×10^6 CFU/mL
[8] = 4 hour exposure, room temperature (20° C.), Agent 1 at 82 mM, Agent 2 at 41 mM, Agent 3 at 47 mM
[9] = 6 hour exposure, room temperature (20° C.), Agent 1 at 82 mM, Agent 2 at 41 mM, Agent 3 at 47 mM

Structure (SMILES): C=C(C)C(=O)OCC[Se]C#N [2-selenocyanatoethyl methacrylate]
- log10 reduction of MRSa [1]: > 4.1 log10
- reduction of MRSa [1]: > 99.9%
- log10 reduction of MRSa [2]: > 4.1 log10
- reduction of MRSa [2]: > 99.9%
- log10 reduction of MRSa [3]: > 4.1 log10
- reduction of MRSa [3]: > 99.9%

Structure (SMILES): NCC[Se][Se]CCN [Agent 1, selenocystamine dihydrochloride]
- reduction of MRSa (2 hour exposure, room temperature (20° C.), Agent 1 at 82 mM, Agent 2 at 41 mM, Agent 3 at 47 mM, 1.13×10^6 CFU/mL, dihydrochloride): 51.3%
- log10 reduction of MRSa [4]: 0.31 log10
- log10 reduction of MRSa [5]: 0.54 log10
- reduction of MRSa [5]: 71.7%
- log10 reduction of MRSa [6]: 1.004 log10
- reduction of MRSa [6]: 90.1%

Structure (SMILES): NCC[Se][Se]CCN [Agent 2, selenocystamine dihydrochloride, reference compound]
- reduction of MRSa [7]: 95.5%
- log10 reduction of MRSa [4]: 1.34 log10
- log10 reduction of MRSa [5]: 1.946 log10
- reduction of MRSa [5]: 98.9%
- log10 reduction of MRSa [6]: 2.024 log10
- reduction of MRSa [6]: 99.1%

Structure (SMILES): NCC[Te]CCN [Agent 3, 2,2′-tellurodiethanamine 2 HCl]
- log10 reduction of MRSa (2 hour exposure, room temperature (20° C.), Agent 1 at 82 mM, Agent 2 at 41 mM, Agent 3 at 47 mM): 3.4 log10
- reduction of MRSa [7]: > 99.9%
- log10 reduction of MRSa [8]: > 4.1 log10
- reduction of MRSa [8]: > 99.9%
- log10 reduction of MRSa [9]: > 4.1 log10
- reduction of MRSa [9]: > 99.9%

Structure (SMILES): O=[Te]([O-])[O-].[K+].[K+] [Test Substance 1, Potassium tellurite, reference compound]
- reduction of MRSa (all time points (exposure times of 2, 4 and 6 hours), starting ~3-4×10^6 CFU/mL MRSA ATCC 33592): very little to no reduction
